Usually IC50 stands for the concentration at which inhibition is half-maximal. Read a low IC50 as greater potency in that assay.

Molecules are shown by their SMILES.

Consider 4 compounds from ChEMBL document CHEMBL4007384, “Synthesis and optimization of furano[3,2-d]pyrimidines as selective spleen tyrosine kinase (Syk) inhibitors” (Bioorg Med Chem Lett, 2016).

In experiment [1] the target is Mitogen-activated protein kinase 8 (Homo sapiens, UniProt P45983). Put plainly: Inhibition of JNK1 (unknown origin) after 60 mins by TR-FRET assay. In general terms: In TR-FRET formats the signal depends on donor and acceptor labels being close together.
Chain of Mitogen-activated protein kinase 8 (P45983 whole entry): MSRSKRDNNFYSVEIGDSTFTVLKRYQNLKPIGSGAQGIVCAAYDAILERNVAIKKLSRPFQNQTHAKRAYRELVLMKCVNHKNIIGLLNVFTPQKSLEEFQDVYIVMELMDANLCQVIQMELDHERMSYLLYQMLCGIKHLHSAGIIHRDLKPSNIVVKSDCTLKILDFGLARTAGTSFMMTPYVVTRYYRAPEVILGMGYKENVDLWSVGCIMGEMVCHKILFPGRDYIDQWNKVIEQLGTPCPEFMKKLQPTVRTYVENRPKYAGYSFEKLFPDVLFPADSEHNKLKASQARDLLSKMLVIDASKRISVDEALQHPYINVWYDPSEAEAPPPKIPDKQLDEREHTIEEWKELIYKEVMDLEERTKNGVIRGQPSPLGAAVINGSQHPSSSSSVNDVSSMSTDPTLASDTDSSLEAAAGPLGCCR
The target in experiment [2] is Proto-oncogene tyrosine-protein kinase receptor Ret (Homo sapiens, UniProt P07949). As to the kind of experiment: Inhibition of RET (unknown origin) after 60 mins by TR-FRET assay.
In a further experiment the target is Activated CDC42 kinase 1 (Homo sapiens, UniProt Q07912). As to the kind of experiment: Inhibition of TNK2 (unknown origin) after 60 mins by TR-FRET assay.
Chain of Activated CDC42 kinase 1 (Q07912 whole entry): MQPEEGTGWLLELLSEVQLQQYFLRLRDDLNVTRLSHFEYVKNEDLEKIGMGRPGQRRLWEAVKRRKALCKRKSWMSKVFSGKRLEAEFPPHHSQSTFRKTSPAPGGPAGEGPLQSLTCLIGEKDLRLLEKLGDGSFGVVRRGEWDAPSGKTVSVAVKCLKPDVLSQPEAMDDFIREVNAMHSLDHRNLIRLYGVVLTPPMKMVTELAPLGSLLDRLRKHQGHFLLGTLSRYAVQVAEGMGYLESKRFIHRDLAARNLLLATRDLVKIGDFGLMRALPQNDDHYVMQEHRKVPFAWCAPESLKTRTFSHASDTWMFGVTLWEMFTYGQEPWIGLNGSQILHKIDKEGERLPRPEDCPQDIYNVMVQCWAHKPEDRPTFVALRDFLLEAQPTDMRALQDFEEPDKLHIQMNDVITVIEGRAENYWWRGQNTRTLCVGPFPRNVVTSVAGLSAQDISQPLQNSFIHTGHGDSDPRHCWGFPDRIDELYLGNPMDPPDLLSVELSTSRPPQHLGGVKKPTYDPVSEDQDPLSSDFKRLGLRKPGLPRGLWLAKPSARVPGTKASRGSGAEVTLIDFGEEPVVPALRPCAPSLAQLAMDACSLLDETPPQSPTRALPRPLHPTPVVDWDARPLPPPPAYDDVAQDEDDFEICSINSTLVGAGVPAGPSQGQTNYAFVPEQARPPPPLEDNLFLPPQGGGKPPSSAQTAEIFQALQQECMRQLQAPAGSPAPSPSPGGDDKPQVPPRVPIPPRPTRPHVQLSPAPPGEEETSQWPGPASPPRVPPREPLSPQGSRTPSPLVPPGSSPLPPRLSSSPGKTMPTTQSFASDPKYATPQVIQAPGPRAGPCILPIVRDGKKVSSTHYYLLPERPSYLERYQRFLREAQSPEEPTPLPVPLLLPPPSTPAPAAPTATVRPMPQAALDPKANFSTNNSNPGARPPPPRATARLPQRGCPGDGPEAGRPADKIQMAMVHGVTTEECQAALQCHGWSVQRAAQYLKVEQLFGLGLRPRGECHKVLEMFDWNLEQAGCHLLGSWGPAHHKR
The target in experiment [3] is Dual specificity tyrosine-phosphorylation-regulated kinase 1B (Homo sapiens, UniProt Q9Y463). Put plainly: Inhibition of DYRK1B (unknown origin) after 60 mins by TR-FRET assay.
Experiment [4] deals with T1, Tyrosine-protein kinase receptor TYRO3 (Homo sapiens, UniProt Q06418).
T1 sequence (Q06418 whole entry): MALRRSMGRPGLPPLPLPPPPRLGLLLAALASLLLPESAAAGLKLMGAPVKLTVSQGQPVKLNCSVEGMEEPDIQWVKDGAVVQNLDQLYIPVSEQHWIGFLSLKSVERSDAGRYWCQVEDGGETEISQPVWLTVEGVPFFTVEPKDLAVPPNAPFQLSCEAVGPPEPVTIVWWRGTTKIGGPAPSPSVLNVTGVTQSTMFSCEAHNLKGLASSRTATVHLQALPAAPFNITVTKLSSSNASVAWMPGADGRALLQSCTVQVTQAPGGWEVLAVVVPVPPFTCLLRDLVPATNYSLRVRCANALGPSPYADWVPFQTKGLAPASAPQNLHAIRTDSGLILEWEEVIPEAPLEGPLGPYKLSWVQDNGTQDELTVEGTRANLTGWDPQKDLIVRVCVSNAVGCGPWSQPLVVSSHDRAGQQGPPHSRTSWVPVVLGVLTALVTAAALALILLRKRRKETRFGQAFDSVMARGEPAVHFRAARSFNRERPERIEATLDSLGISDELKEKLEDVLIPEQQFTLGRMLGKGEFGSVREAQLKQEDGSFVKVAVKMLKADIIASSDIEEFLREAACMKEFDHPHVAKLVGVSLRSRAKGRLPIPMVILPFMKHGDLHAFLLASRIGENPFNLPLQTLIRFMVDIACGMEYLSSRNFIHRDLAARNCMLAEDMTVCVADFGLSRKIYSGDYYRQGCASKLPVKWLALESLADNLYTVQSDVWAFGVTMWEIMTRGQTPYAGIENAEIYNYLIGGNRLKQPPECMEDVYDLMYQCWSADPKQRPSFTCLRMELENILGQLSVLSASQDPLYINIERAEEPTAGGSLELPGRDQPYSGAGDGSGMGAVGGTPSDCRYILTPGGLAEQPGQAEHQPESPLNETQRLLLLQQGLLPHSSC
As to the kind of experiment: Inhibition of TYRO3 (unknown origin) after 60 mins by TR-FRET assay.

The next experiment deals with Aurora kinase B (Homo sapiens, UniProt Q96GD4). As to the kind of experiment: Inhibition of AURKB (unknown origin) after 60 mins by TR-FRET assay.
Chain of Aurora kinase B (Q96GD4 whole entry): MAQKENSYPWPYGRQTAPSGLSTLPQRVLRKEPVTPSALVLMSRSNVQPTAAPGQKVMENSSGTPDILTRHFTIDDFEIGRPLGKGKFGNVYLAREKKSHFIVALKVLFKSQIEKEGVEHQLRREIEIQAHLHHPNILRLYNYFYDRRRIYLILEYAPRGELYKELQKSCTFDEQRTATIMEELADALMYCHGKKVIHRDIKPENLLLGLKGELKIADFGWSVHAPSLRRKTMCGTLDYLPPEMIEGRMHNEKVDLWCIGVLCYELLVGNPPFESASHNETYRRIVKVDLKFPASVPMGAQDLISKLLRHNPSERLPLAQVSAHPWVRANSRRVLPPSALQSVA
The target of experiment [5] is Tyrosine-protein kinase BTK (Homo sapiens, UniProt Q06187). Put plainly: Inhibition of BTK (unknown origin) after 60 mins by TR-FRET assay.
Chain of Tyrosine-protein kinase BTK (Q06187 whole entry): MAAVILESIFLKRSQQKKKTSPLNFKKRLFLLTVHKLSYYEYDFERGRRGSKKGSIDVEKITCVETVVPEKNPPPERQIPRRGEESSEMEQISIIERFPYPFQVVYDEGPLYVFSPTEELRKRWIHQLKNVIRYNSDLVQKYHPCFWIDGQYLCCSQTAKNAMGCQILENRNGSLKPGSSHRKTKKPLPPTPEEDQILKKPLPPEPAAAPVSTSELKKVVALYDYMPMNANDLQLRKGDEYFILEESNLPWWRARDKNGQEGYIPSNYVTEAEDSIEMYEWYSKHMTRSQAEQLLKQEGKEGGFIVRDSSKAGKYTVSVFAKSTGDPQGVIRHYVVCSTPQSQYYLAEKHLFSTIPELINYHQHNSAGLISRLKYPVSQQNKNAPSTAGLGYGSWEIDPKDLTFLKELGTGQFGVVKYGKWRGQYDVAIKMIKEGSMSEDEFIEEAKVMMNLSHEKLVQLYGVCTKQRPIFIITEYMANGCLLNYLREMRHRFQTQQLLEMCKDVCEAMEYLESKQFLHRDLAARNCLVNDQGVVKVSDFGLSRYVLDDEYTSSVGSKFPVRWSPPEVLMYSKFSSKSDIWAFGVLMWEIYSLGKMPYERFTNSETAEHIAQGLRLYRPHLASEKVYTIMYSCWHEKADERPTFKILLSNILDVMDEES
The target of experiment [6] is T2, Serine/threonine-protein kinase D3 (Homo sapiens, UniProt O94806).
T2 sequence (O94806 whole entry): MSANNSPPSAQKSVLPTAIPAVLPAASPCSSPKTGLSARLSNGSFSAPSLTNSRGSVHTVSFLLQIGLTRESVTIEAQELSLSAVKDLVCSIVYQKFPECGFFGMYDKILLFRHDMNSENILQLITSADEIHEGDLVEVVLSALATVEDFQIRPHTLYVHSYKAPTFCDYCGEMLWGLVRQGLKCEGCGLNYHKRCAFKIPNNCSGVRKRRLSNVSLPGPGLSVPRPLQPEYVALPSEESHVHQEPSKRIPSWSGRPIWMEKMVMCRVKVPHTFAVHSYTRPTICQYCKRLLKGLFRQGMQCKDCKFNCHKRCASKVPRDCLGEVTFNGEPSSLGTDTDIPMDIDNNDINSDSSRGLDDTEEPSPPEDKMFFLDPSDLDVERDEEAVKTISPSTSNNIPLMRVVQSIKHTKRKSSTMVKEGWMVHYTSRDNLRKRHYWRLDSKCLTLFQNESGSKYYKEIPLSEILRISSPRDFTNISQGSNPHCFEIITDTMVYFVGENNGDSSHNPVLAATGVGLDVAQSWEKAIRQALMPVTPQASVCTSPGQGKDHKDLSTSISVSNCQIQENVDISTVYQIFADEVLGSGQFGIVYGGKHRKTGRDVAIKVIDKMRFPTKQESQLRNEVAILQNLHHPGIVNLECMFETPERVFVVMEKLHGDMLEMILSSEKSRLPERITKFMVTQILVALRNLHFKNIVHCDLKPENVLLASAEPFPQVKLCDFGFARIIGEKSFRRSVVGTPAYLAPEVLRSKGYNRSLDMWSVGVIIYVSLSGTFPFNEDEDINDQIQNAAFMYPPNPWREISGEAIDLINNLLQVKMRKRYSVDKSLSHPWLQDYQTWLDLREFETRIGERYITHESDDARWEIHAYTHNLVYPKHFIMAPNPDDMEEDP
As to the kind of experiment: Inhibition of Prkcn (unknown origin) after 60 mins by TR-FRET assay.

Experiment [7] deals with Vascular endothelial growth factor receptor 2 (Homo sapiens, UniProt P35968). Put plainly: Inhibition of KDR (unknown origin) after 60 mins by TR-FRET assay.
Chain of Vascular endothelial growth factor receptor 2 (P35968 whole entry): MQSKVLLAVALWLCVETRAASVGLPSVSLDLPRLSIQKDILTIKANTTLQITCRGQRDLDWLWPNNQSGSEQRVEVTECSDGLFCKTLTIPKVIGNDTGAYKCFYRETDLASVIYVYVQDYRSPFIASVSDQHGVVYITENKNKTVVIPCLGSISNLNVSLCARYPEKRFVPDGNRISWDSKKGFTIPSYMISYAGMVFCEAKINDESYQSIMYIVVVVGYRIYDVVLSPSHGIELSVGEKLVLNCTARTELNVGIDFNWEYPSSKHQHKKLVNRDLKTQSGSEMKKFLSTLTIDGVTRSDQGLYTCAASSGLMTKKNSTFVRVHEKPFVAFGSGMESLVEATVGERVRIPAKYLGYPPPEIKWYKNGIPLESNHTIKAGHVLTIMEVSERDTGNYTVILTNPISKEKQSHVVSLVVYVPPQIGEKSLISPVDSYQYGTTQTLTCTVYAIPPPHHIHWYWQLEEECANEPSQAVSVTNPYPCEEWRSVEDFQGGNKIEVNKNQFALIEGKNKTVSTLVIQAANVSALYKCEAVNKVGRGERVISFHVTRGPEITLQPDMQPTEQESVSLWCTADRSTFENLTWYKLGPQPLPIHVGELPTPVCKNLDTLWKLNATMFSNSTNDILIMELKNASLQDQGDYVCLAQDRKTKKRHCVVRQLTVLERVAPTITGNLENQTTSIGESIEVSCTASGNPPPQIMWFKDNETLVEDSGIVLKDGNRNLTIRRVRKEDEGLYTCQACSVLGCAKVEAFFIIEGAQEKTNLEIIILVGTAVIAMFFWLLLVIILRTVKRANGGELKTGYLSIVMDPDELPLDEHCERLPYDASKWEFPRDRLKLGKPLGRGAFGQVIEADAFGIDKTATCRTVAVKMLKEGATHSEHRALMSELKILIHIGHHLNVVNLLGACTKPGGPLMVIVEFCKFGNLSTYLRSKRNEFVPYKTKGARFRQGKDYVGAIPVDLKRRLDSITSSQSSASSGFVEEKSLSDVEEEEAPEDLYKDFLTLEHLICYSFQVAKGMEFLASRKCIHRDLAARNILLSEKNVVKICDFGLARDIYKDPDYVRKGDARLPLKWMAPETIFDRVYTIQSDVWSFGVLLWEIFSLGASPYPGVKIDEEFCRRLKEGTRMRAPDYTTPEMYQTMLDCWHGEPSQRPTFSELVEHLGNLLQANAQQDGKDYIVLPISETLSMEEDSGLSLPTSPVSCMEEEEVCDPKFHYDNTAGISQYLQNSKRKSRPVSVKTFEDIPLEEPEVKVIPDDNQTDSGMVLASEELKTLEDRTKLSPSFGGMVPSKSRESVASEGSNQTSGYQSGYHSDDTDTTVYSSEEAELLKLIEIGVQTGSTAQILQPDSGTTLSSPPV
The target in experiment [8] is Platelet-derived growth factor receptor alpha (Homo sapiens, UniProt P16234). Put plainly: Inhibition of PDGFRA (unknown origin) after 60 mins by TR-FRET assay.
The target in experiment [9] is Dual specificity mitogen-activated protein kinase kinase 1 (Homo sapiens, UniProt Q02750). Put plainly: Inhibition of MEK1 (unknown origin) after 60 mins by TR-FRET assay.
Experiment [10] has as its target Glycogen synthase kinase-3 alpha (Homo sapiens, UniProt P49840). Put plainly: Inhibition of GSK3A (unknown origin) after 60 mins by TR-FRET assay.
Experiment [11] has as its target Tyrosine-protein kinase SYK (Homo sapiens, UniProt P43405).
Description: Inhibition of Syk (unknown origin) after 60 mins by TR-FRET assay
A short description of experiment [12]: Inhibition of PKA (unknown origin) after 60 mins by TR-FRET assay.
Experiment [13] has as its target Protein kinase C theta type (Homo sapiens, UniProt Q04759). Put plainly: Inhibition of PKCtheta (unknown origin) after 60 mins by TR-FRET assay.

Chain of Protein kinase C theta type (Q04759 whole entry): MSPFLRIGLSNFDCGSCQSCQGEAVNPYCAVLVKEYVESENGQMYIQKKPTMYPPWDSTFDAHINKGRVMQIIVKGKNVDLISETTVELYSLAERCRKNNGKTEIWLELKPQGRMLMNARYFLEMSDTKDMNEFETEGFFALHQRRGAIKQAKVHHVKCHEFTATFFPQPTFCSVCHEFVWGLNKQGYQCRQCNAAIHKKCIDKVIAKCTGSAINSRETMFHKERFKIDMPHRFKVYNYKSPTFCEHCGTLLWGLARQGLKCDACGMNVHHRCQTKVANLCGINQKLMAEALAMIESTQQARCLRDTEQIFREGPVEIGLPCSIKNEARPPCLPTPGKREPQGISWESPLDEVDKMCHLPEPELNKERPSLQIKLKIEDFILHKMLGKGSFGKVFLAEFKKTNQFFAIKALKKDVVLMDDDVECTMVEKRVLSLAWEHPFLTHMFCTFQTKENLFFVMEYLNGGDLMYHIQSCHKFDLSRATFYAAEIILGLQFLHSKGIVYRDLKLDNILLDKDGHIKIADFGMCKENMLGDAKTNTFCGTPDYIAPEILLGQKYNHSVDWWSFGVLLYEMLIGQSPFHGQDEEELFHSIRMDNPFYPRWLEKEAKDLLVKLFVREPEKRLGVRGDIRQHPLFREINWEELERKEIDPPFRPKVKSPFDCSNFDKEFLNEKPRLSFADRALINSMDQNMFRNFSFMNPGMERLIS
Chain of Glycogen synthase kinase-3 alpha (P49840 whole entry): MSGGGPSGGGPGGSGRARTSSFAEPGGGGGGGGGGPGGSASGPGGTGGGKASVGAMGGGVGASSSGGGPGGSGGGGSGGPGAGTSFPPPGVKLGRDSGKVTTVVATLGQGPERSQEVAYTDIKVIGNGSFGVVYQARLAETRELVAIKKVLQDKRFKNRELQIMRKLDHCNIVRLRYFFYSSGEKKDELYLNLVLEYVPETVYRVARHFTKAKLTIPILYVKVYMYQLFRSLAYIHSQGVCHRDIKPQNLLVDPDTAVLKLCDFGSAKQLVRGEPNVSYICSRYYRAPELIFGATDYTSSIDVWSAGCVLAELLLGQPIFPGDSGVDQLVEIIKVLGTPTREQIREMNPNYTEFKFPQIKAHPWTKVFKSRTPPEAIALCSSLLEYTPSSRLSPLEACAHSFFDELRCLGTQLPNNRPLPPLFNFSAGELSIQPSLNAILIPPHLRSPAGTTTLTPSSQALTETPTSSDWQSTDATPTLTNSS

With `CC1(C)OCC(=O)Nc2cc(Nc3nc(NCC(F)(F)F)c4occc4n3)ccc21`, the half-maximal inhibitory concentration (IC50) is 2.67 µM in experiment [1]; 0.379 µM in experiment [2]; 1.33 µM against Activated CDC42 kinase 1; above 10 µM in experiment [3]; above 10 µM in experiment [4]; above 10 µM against Aurora kinase B. Besides, the IC50 in experiment [5] was 5.02 µM; in experiment [6] it was above 10 µM; in [7], 3.35 µM; in experiment [8], 5.59 µM; in [9], above 10 µM; in experiment [10] it was above 10 µM. Besides, the IC50 is 0.009 µM in [11], above 10 µM in experiment [12] and above 10 µM in experiment [13].
As to `FC(F)(F)CNc1nc(Nc2ccc3cn[nH]c3c2)nc2ccoc12`, the half-inhibitory concentration (IC50) in experiment [1] is 2.89 µM; in [2], 3.5 µM; against Activated CDC42 kinase 1, 3.46 µM; in [4], 3.21 µM; at Aurora kinase B it was above 10 µM; in [5], above 10 µM. The half-maximal inhibitory concentration (IC50) in [6] was above 10 µM; in experiment [7], above 10 µM; in experiment [8] it was above 10 µM; in experiment [9], above 10 µM; in experiment [10] it was 9.36 µM; in [11], 0.097 µM. In addition, the half-maximal inhibitory concentration (IC50) in experiment [12] is above 10 µM.
On to `Cc1n[nH]c2cc(Nc3nc(NC4CC4)c4occc4n3)ccc12`, for which the 50% inhibitory concentration (IC50) is 2.75 µM in experiment [1]; 1.32 µM against Activated CDC42 kinase 1; above 10 µM in [3]; 4.14 µM in experiment [4]; above 10 µM against Aurora kinase B; above 10 µM in [5]. Besides, the concentration for half-maximal inhibition (IC50) in experiment [6], in experiment [8], in experiment [9], in [10], in [12] and in [13] was above 10 µM in each case.
Consider `FC(F)(F)CNc1nc(Nc2ccc(N3CCOCC3)c(Cl)c2)nc2ccoc12`, for which the IC50 in experiment [1] is 0.513 µM; in [2] it was 1.51 µM; against Activated CDC42 kinase 1 it was 4.02 µM; in experiment [3], above 10 µM; in experiment [4], above 10 µM; at Aurora kinase B it was above 10 µM. Moreover, the IC50 in [5], in experiment [6], in experiment [7], in [8], in experiment [9] and in [10] was above 10 µM in each case. Further, the half-maximal inhibitory concentration (IC50) in [11] is 0.069 µM; in experiment [12] it was above 10 µM; in experiment [13], above 10 µM.
